“Also recorded” adds a separate entry of the source.
What was measured:
[1] = Renal impairment study, single 10 mg dose: safety; type: in vivo
From the text: One subject with end stage disease experienced an unrelated SAE of metabolic encephalopathy and a moderate unrelated adverse event (AE) of tremor. One control subject experienced a mild AE of diarrhea, which was considered to be related to study drug by the Investigator. […] It is not necessary to dose adjust (R)-compound 1 for patients with renal impairment.
Overall, there were no deaths, 1 (3.0%) subject experienced an SAE, and no subjects discontinued due to a TEAE. Overall, 2 (6.1%) subjects experienced a total of 3 TEAEs: 1 (10.0%) subject in the control group experienced a TEAE of mild diarrhea following administration of (R)-compound 1 that was considered related to the study drug; no subjects experienced a TEAE in the (R)-moderate to severe renal impairment group; and 1 (8.3%) subject in the kidney failure group experienced 2 TEAEs of moderate tremor and severe metabolic encephalopathy (recorded as an SAE) following administration of (R)-compound 1 that were considered not related to the study drug. The SAE was thought to be secondary to the concomitant medications. As such, there was no apparent increase in incidence or severity of AEs with decreased renal function. There were no AEs, trends, or clinically meaningful changes in laboratory parameters. There were no AEs or clinically significant changes observed in vital signs, physical examinations, or 12-lead ECGs.

[2] = molecular target: T1, CYP11B1 (Homo sapiens, UniProt P15538); test: MAD study: plasma cortisol (free and total) and 11-deoxycortisol, with and without Cortrosyn challenge; type: in vivo; settings: for cortisol (total or free) or 11-deoxycortisol: doses ≤5 mg, including Cortrosyn challenge
T1 construct: endogenous in cells; host or cells: adrenal cortex of healthy human subjects (in vivo, oral dosing)
T1 sequence (P15538 25-503): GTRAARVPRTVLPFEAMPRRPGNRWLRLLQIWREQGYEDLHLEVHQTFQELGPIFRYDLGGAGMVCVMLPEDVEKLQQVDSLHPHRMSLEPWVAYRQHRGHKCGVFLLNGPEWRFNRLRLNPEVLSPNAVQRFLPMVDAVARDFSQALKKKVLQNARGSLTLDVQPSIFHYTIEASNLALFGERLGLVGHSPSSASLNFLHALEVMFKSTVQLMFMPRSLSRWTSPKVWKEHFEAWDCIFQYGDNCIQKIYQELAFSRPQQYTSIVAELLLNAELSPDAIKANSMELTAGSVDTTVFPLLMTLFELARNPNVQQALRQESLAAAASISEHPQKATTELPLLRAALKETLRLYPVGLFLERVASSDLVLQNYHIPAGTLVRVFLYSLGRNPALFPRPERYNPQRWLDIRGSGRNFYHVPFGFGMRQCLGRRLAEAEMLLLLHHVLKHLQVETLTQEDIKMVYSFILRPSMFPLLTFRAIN
From the text: For each subject, the study consisted of: • A screening period of up to 28 days; • A 5-day inpatient run-in period during which subjects adhered to a controlled, standardized diet and underwent baseline PD assessments; • A 15-day inpatient treatment period, during which subjects received (R)-compound 1 or placebo once daily for 10 days while adhering to a controlled, standardized diet, followed by PK and PD sampling over an additional 5 days; and • A follow-up visit 3 days (1 day) after discharge from the clinical unit. • A cortisol stimulation test (Cohorts 1 and 2 only) and standing aldosterone assessment (all cohorts) were performed on Days 1 and 10. Serial blood samples for PK and PD were obtained prior to and at specified time points over 24 hours after dosing on Day 1 as well as prior to and at specified time points over 120 hours after dosing on Day 10. In addition, blood samples for PK were collected prior to dosing on Days 8 and 9. Urine for PK and PD measurements was collected over 24 hours starting just prior to dosing on Day 1 as well as over 120 hours starting just prior to dosing on Day 10.
These findings are consistent in the presence of Cortrosyn challenge (which occurred with the low salt treatment groups) and in the absence of the challenge (normal salt groups) (Table 13).

[3] = Day 1, 0.5 mg, normal salt diet
[4] = Day 1, 1.5 mg, normal salt diet
[5] = Day 1, 2.5 mg, low salt diet (Cortrosyn challenge)
[6] = Day 1, 2.5 mg, normal salt diet
[7] = Day 1, 5.0 mg, low salt diet (Cortrosyn challenge)
[8] = Day 10, 0.5 mg, normal salt diet
[9] = Day 10, 1.5 mg, normal salt diet
[10] = Day 10, 2.5 mg, low salt diet (Cortrosyn challenge)
[11] = Day 10, 2.5 mg, normal salt diet
[12] = Day 10, 5.0 mg, low salt diet (Cortrosyn challenge)

CCC(=O)N[C@@H]1CCCc2c(-c3ccc4c(c3)CCC(=O)N4C)cncc21 [(R)-Compound 1, (R)—N-(4-(1-methyl-2-oxo-1,2,3,4-tetrahydroquinolin-6-yl)-5,6,7,8-tetrahydroisoquinolin-8-yl)propionamide]
subjects experiencing a TEAE (mild diarrhea, related) ([1]; control group): 1 (10.0%)
subjects experiencing TEAEs (moderate tremor, severe metabolic encephalopathy, not related) ([1]; kidney failure group): 1 (8.3%)
subjects experiencing a TEAE ([1]; moderate to severe renal impairment group): no subjects
subjects experiencing TEAEs ([1]; overall, single 10 mg dose): 2 (6.1%)
subjects experiencing an SAE ([1]; overall, single 10 mg dose): 1 (3.0%)
tolerability ([1]; single 10 mg dose, varying degrees of renal function): well tolerated
Plasma total cortisol, percent change from Day −1 to Day 10, predose, mean ([2]; 0.5 mg, normal salt diet): −2.83%
Plasma total cortisol, percent change from Day −1 to Day 10, predose, mean ([2]; 1.5 mg, normal salt diet): 19.44%
Plasma total cortisol, percent change from Day −1 to Day 10, predose, mean ([2]; 2.5 mg, low salt diet): 5.29%
Plasma total cortisol, percent change from Day −1 to Day 10, predose, mean ([2]; 2.5 mg, normal salt diet): −0.09%
Plasma total cortisol, percent change from Day −1 to Day 10, predose, mean ([2]; 5.0 mg, low salt diet): 58.40%
Plasma total cortisol, mean ([2]; Day 1, 12 hours postdose, 0.5 mg, normal salt diet): 28.14 ng/mL
Plasma total cortisol, mean ([2]; Day 1, 12 hours postdose, 1.5 mg, normal salt diet): 25.32 ng/mL
Plasma total cortisol, mean ([2]; Day 1, 12 hours postdose, 2.5 mg, low salt diet): 21.90 ng/mL
Plasma total cortisol, mean ([2]; Day 1, 12 hours postdose, 2.5 mg, normal salt diet): 30.10 ng/mL
Plasma total cortisol, mean ([2]; Day 1, 12 hours postdose, 5.0 mg, low salt diet): 19.43 ng/mL
Plasma total cortisol, mean ([2]; Day 1, predose, 0.5 mg, normal salt diet): 84.15 ng/mL
Plasma total cortisol, mean ([2]; Day 1, predose, 1.5 mg, normal salt diet): 97.61 ng/mL
Plasma total cortisol, mean ([2]; Day 1, predose, 2.5 mg, low salt diet): 71.75 ng/mL
Plasma total cortisol, mean ([2]; Day 1, predose, 2.5 mg, normal salt diet): 106.85 ng/mL
Plasma total cortisol, mean ([2]; Day 1, predose, 5.0 mg, low salt diet): 68.24 ng/mL
Plasma 11-deoxycortisol AUC0-12 estimated percent change from baseline, LS Mean [2, 3]: −0.57%
Plasma cortisol AUC0-12 estimated percent change from baseline, LS Mean [2, 3]: −4.43%
Plasma 11-deoxycortisol AUC0-12 estimated percent change from baseline, LS Mean [2, 4]: 2.39%
Plasma cortisol AUC0-12 estimated percent change from baseline, LS Mean [2, 4]: 0.62%
Plasma 11-deoxycortisol AUC0-12 estimated percent change from baseline, LS Mean [2, 5]: 21.63%
Plasma cortisol AUC0-12 estimated percent change from baseline, LS Mean [2, 5]: −3.91%
Plasma 11-deoxycortisol AUC0-12 estimated percent change from baseline, LS Mean [2, 6]: 12.73%
Plasma cortisol AUC0-12 estimated percent change from baseline, LS Mean [2, 6]: −0.52%
Plasma 11-deoxycortisol AUC0-12 estimated percent change from baseline, LS Mean [2, 7]: 36.67%
Plasma cortisol AUC0-12 estimated percent change from baseline, LS Mean [2, 7]: 4.04%
Plasma total cortisol, mean ([2]; Day 2, predose, 0.5 mg, normal salt diet): 88.33 ng/mL
Plasma total cortisol, mean ([2]; Day 2, predose, 1.5 mg, normal salt diet): 95.12 ng/mL
Plasma total cortisol, mean ([2]; Day 2, predose, 2.5 mg, normal salt diet): 109.23 ng/mL
Plasma total cortisol, mean ([2]; Day 10, 12 hours postdose, 0.5 mg, normal salt diet): 22.36 ng/mL
Plasma total cortisol, mean ([2]; Day 10, 12 hours postdose, 1.5 mg, normal salt diet): 41.31 ng/mL
Plasma total cortisol, mean ([2]; Day 10, 12 hours postdose, 2.5 mg, low salt diet): 22.93 ng/mL
Plasma total cortisol, mean ([2]; Day 10, 12 hours postdose, 2.5 mg, normal salt diet): 31.86 ng/mL
Plasma total cortisol, mean ([2]; Day 10, 12 hours postdose, 5.0 mg, low salt diet): 31.90 ng/mL
Plasma total cortisol, mean ([2]; Day 10, 24 hours postdose, 0.5 mg, normal salt diet): 95.76 ng/mL
Plasma total cortisol, mean ([2]; Day 10, 24 hours postdose, 1.5 mg, normal salt diet): 90.27 ng/mL
Plasma total cortisol, mean ([2]; Day 10, 24 hours postdose, 2.5 mg, low salt diet): 94.36 ng/mL
Plasma total cortisol, mean ([2]; Day 10, 24 hours postdose, 2.5 mg, normal salt diet): 126.20 ng/mL
Plasma total cortisol, mean ([2]; Day 10, 24 hours postdose, 5.0 mg, low salt diet): 121.40 ng/mL
Plasma total cortisol, mean ([2]; Day 10, predose, 0.5 mg, normal salt diet): 81.90 ng/mL
Plasma total cortisol, mean ([2]; Day 10, predose, 1.5 mg, normal salt diet): 96.54 ng/mL
Plasma total cortisol, mean ([2]; Day 10, predose, 2.5 mg, low salt diet): 91.85 ng/mL
Plasma total cortisol, mean ([2]; Day 10, predose, 2.5 mg, normal salt diet): 106.52 ng/mL
Plasma total cortisol, mean ([2]; Day 10, predose, 5.0 mg, low salt diet): 112.67 ng/mL
Plasma 11-deoxycortisol AUC0-12 estimated percent change from baseline, LS Mean [2, 8]: −6.77%
Plasma cortisol AUC0-12 estimated percent change from baseline, LS Mean [2, 8]: −19.53%
Plasma 11-deoxycortisol AUC0-12 estimated percent change from baseline, LS Mean [2, 9]: 1.82%
Plasma cortisol AUC0-12 estimated percent change from baseline, LS Mean [2, 9]: −4.45%
Plasma 11-deoxycortisol AUC0-12 estimated percent change from baseline, LS Mean [2, 10]: −25.69%
Plasma cortisol AUC0-12 estimated percent change from baseline, LS Mean [2, 10]: −38.02%
Plasma 11-deoxycortisol AUC0-12 estimated percent change from baseline, LS Mean [2, 11]: −2.72%
Plasma cortisol AUC0-12 estimated percent change from baseline, LS Mean [2, 11]: −9.23%
Plasma 11-deoxycortisol AUC0-12 estimated percent change from baseline, LS Mean [2, 12]: 18.84%
Plasma cortisol AUC0-12 estimated percent change from baseline, LS Mean [2, 12]: −37.25%
Plasma total cortisol, mean ([2]; Day −1 predose, 0.5 mg, normal salt diet): 86.74 ng/mL
Plasma total cortisol, mean ([2]; Day −1 predose, 1.5 mg, normal salt diet): 90.79 ng/mL
Plasma total cortisol, mean ([2]; Day −1 predose, 2.5 mg, low salt diet): 90.39 ng/mL
Plasma total cortisol, mean ([2]; Day −1 predose, 2.5 mg, normal salt diet): 107.50 ng/mL
Plasma total cortisol, mean ([2]; Day −1 predose, 5.0 mg, low salt diet): 83.17 ng/mL
cortisol (total or free) or 11-deoxycortisol [2]: remained unaffected
cortisol (total or free) or 11-deoxycortisol ([2]; listed as (R)-compound 1): no apparent effects; also recorded: no apparent differences
